From patent US20030232871A1 (priority 2002, published 2003)
“Also recorded” adds a separate entry of the source.

Assays:
[1] = target: COX-1 (Homo sapiens, UniProt P23219); conditions: background statement; cited from earlier work
[2] = Moisture sorption (Dynamic Vapor Water Sorption analyzer); assay type: physicochemical; conditions: 25° C.; for hygroscopicity compared with Form A: up to about 80% RH
Description: Moisture sorption data were collected at 25° C. from 0% to 80% RH using a Surface Measurement Systems Dynamic Vapor Water Sorption analyzer. The equilibrium window was for a dm/dT of 0.0003 or a maximum time of 120 minutes.

[3] = True density by helium pycnometry; assay type: physicochemical
[4] = Thermodynamic parameters from eutectic melting data (ΔG−T and ΔG/T−1/T plots); assay type: physicochemical; conditions: for Tt (transition temperature): LT form to HT = Form A, calculated as Tt=ΔH/ΔS; for ΔH / ΔS: transition of low temperature form (LT) to HT = Form A, derived from eutectic melting data
Description: Based on the Heat of Transition Rule both Forms B and E are believed to be enantiotropically related to Form A, meaning there is a change in the stability relationship between the forms around a transition temperature Tt. Determination of Tt for Forms B and E with respect to Form A was performed by the use of eutectic melting data. Eutectics were formed between a reference compound (RC) and each of Forms A, B and E of parecoxib sodium. Subsequently heat of fusion data were used to derive the free energy difference between the crystal forms at the eutectic temperature (equation I): xej(Gj-Gi)Tei=Δ[…])]} (equation I) wherein xej and xei are the mole fraction of crystal forms j and i respectively in the eutectic; (Gj-Gi) is the free energy difference between crystal forms i and j at Tei; ΔHmej and ΔHmei are the enthalpy of eutectic melting of crystal forms j and i respectively; Tei and Tej are the temperatures of eutectic melting of crystal forms i and j respectively; ΔCpij is the heat capacity change across the eutectic melt; and R is the ideal gas constant. […] By definition, the free energy difference between crystal forms is zero at the transition temperature. The transition temperature given in Table 5 above was calculated according to equation II: Tt=ΔH/ΔS (equation II)

[5] = Solution calorimetry (heat of solution); assay type: physicochemical; conditions: LT form / Form A pair

COX-1, sequence (P23219 24-599): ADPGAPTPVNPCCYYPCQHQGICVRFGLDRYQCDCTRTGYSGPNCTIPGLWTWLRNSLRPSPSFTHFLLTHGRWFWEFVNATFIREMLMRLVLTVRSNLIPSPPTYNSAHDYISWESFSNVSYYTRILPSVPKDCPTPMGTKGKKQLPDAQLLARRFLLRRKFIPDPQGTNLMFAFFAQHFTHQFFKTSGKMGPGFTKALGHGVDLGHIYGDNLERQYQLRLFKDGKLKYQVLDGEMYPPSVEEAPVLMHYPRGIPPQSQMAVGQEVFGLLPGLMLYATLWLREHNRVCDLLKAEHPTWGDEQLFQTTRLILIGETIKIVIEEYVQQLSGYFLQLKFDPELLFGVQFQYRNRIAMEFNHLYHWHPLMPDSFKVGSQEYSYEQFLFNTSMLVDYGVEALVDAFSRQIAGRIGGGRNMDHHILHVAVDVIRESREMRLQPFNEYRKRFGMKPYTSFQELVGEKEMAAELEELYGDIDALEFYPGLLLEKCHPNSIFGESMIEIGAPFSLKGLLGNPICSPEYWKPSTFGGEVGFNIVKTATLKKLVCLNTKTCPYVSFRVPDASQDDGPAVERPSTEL

| SMILES | in vitro inhibitory activity against COX-1 [1] | moisture sorbed ([2]; 0-60% RH range) | behaviour above 60% RH ([2]; above 60% RH) | true density [3] [g/mL] | Tt (transition temperature) [4] [°C] | ΔH [4] [kJ/mol] | ΔS [4] [J/mole/K] | ΔH from heat of solution data [5] [kJ/mol] | hygroscopicity compared with Form A [2] |
| --- | --- | --- | --- | --- | --- | --- | --- | --- | --- |
| Cc1onc(-c2ccccc2)c1-c1ccc(S(N)(=O)=O)cc1 [valdecoxib] | weak | – | – | – | – | – | – | – | – |
| CCC(=O)[N-]S(=O)(=O)c1ccc(-c2c(-c3ccccc3)noc2C)cc1.[Na+] [Form A, parecoxib sodium] | – | less than 1% | deliquesced; also recorded: greater tendency to sorb water and even to deliquesce | 1.34 ± 0.01 | – | – | – | – | – |
| CCC(=O)NS(=O)(=O)c1ccc(-c2c(-c3ccccc3)noc2C)cc1 [Parecoxib] | weak | – | – | – | – | – | – | – | – |
| CCC(=O)[N-]S(=O)(=O)c1ccc(-c2c(-c3ccccc3)noc2C)cc1.[Na+] [Form B, parecoxib sodium] | – | – | – | 1.46 ± 0.01 | 163.3 | 16.63 | 38.1 | 15.34 | less hygroscopic than Form A |
| CCC(=O)[N-]S(=O)(=O)c1ccc(-c2c(-c3ccccc3)noc2C)cc1.[Na+] [Form E, parecoxib sodium] | – | – | – | 1.42 ± 0.01 | 163.9 | 17.15 | 39.2 | 17.94 | less hygroscopic than Form A |
